Source: ChEMBL document CHEMBL1142041, “3-(2,5-Dihydro-1H-pyrrol-2-ylmethoxy)pyridines: synthesis and analgesic activity” (2005)

What was measured:
Mus musculus [1] = test: Analgesic activity of compound in phase II mouse formalin activities at a dose range of 0.4-3.1 mg, s.c.; format: functional; details: sc
Mus musculus [2] = test: Analgesic activity of compound in phase I mouse formalin activities at a dose range of 0.4-3.1 mg, s.c.; format: functional; details: sc
Mus musculus [3] = test: Analgesic activity of compound in phase I mouse formalin activities at a dose range of […], s.c.; exhibited confounding effects; format: functional, organism-based
Mus musculus [4] = test: Analgesic activity of compound in phase II mouse formalin activities at a dose range of […], s.c.; exhibited confounding effects; format: functional, organism-based
Mus musculus [5] = test: Analgesic activity of compound in phase I mouse formalin activities at a dose range of 0.4-6.3 mg, s.c.; format: functional; details: sc
Mus musculus [6] = test: Analgesic activity of compound in phase II mouse formalin activities at a dose range of 0.4-6.3 mg, s.c.; format: functional; details: sc

SMILES	ED50 (Mus musculus [3])	ED50 (Mus musculus [4])	also measured
Clc1ccc(OC[C@H]2CCN2)cn1 [TEBANICLINE]			ED50 (Mus musculus [1]): 0.8 µmol/kg; ED50 (Mus musculus [2]): 0.9 µmol/kg
C[C@]1(COc2ccc(Cl)nc2)C=CCN1	Counfounding effects	Counfounding effects	
Clc1ccc(OC[C@@H]2C=CCN2)cn1	Counfounding effects	Counfounding effects	
C[C@@]1(COc2ccc(Cl)nc2)C=CCN1	Counfounding effects	Counfounding effects	
Clc1ccc(OC[C@H]2C=CCN2)cn1			ED50 (Mus musculus [5]): 1.6 µmol/kg; ED50 (Mus musculus [6]): 1.6 µmol/kg
C[C@]1(CNc2ccc(Cl)nc2)C=CCN1	Counfounding effects	Counfounding effects	
C[C@]1(COc2cccnc2)C=CCN1	Counfounding effects	Counfounding effects	
